Measured values reported in US20240325409A1, “Fused Heterotetracyclic Antiviral Agents” (Enanta Pharmaceuticals, Inc., priority 2023, published 2024).

test system: HBV; test: HBV infection of HepG2-NTCP cells, HBeAg AlphaLISA readout; format: cell-based; conditions: Hepatitis B virus, 192 h, 2000 GE/cell, HBeAg in supernatant at day 8 post infection, 50% reduction relative to DMSO controls, read-out: Cellular EC50
Description: HepG2-NTCP A3 cells were maintained in DMEM media supplemented with GlutaMAX™, 10% fetal bovine serum, 1% penicillin/streptomycin, and 5 ug/mL puromycin at 37° C. in a humidified atmosphere with 5% CO2 in a collagen-coated tissue culture flask.
HepG2-NTCP cells were seeded in 384 well plate containing 16,000 cells/well two days prior to the infection. On the day of infection, compounds were 3-fold serially diluted in DMSO and pre-incubated with HepG2-NTCP cells for two hours before purified HBV addition. HBV infection was carried out at 2000 GE/cell with 4% PEG, and the final concentration of DMSO is 0.5%. On day one post infection, HBV-containing media was aspirated, cells were washed once with PBS and then maintained in 2.5% DMSO containing media for the remainder of the assay.
Supernatants from infected HepG2-NTCP cells were collected at day 8 post infection, and the amount of viral antigen HBeAg was measured by HBeAg AlphaLISA detection kit (PerkinElmer) following the manufacturer's recommended protocol. Irrespective of readout, compound concentrations that reduce viral product accumulation in supernatants by 50% relative to DMSO controls (EC50) are reported. EC50 ranges are as follows: A<0.1 µM; B 0.1-1 µM; C>1 µM.

SMILES | EC50 [nM]
CN1[C@H](C2CC2)CN(c2ccccc2)c2cc3c(cc2S1(=O)=O)-c1cc(C(=O)O)ccc1CO3 [Example 2, (R)-10-cyclopropyl-11-methyl-8-phenyl-8,9,10,11-tetrahydro-5H-benzo[3,4]chromeno[7,6-f][1,2,5]thiadiazepine-2-carboxylic acid 12,12-dioxide] | 100 to 1000
CN1[C@H](C2CCCCC2)CN(c2ccccc2)c2cc3c(cc2S1(=O)=O)-c1cc(C(=O)O)ccc1CO3 [Example 8] | < 100
CC(C)C[C@@H]1CN(c2ccccc2)c2cc3c(cc2S(=O)(=O)N1C)-c1cc(C(=O)O)c(F)c(F)c1CO3 [Example 12, (R)-3,4-difluoro-10-isobutyl-11-methyl-8-phenyl-8,9,10,11-tetrahydro-5H-benzo[3,4]chromeno[7,6-f][1,2,5]thiadiazepine-2-carboxylic acid 12,12-dioxide] | < 100
CN1[C@H](C2CCC2)CN(c2ccccc2)c2cc3c(cc2S1(=O)=O)-c1cc(C(=O)O)c(F)c(F)c1CO3 [Example 13] | < 100
CN1[C@H](C2CCCCC2)CN(c2ccccc2)c2cc3c(cc2S1(=O)=O)-c1cc(C(=O)O)c(F)c(F)c1CO3 [Example 14] | < 100
CN1[C@H](C2CCC2)CN(c2ccccc2)c2cc3c(cc2S1(=O)=O)-c1cc(C(=O)O)sc1CO3 [Example 16] | < 100
CCCC[C@@H]1CN(c2ccccc2)c2cc3c(cc2S(=O)(=O)N1C)-c1cc(C(=O)O)c(F)c(F)c1CO3 [Example 17] | < 100
CC(C)C[C@@H]1CN(c2ccccc2)c2cc3c(cc2S(=O)(=O)N1C)-c1cc(C(=O)O)sc1CO3 [Example 18, (R)-9-isobutyl-10-methyl-7-phenyl-7,8,9,10-tetrahydro-4H-thieno[2′,3′:3,4]chromeno[7,6-f][1,2,5]thiadiazepine-2-carboxylic acid 11,11-dioxide] | < 100
CN1[C@H](C2CCCCC2)CN(c2ccccc2)c2cc3c(cc2S1(=O)=O)-c1cc(C(=O)O)sc1CO3 [Example 19] | < 100
CCCC[C@@H]1CN(c2ccccc2)c2cc3c(cc2S(=O)(=O)N1C)-c1cc(C(=O)O)ccc1[C@H](C(F)(F)F)O3 [Example 21a, (5R,10R)-10-butyl-11-methyl-8-phenyl-5-(trifluoromethyl)-8,9,10,11-tetrahydro-5H-benzo[3,4]chromeno[7,6-f][1,2,5]thiadiazepine-2-carboxylic acid 12,12-dioxide] | 100 to 1000
CN1[C@H](C2CCCCC2)CNc2cc3c(cc2S1(=O)=O)-c1cc(C(=O)O)ccc1CO3 [Example 25, (R)-10-cyclohexyl-11-methyl-8,9,10,11-tetrahydro-5H-benzo[3,4]chromeno[7,6-f][1,2,5]thiadiazepine-2-carboxylic acid 12,12-dioxide] | > 1000
CN1[C@H](C2CCCCC2)CN(c2ccccc2)c2cc3c(cc2S1(=O)=O)-c1cc(C(=O)O)ccc1CN3c1ccccc1F [Example 30] | > 1000
CN1Cc2ccc(C(=O)O)cc2-c2cc3c(cc21)NC[C@@H](C1CCCCC1)N(C)S3(=O)=O [Example 31, (R)-10-cyclohexyl-6,11-dimethyl-5,6,8,9,10,11-hexahydro-[1,2,5]thiadiazepino[7,6-b]phenanthridine-2-carboxylic acid 12,12-dioxide] | > 1000
CN1[C@H](C2CCCCC2)CNc2cc3c(cc2S1(=O)=O)-c1cc(C(=O)O)ccc1CN3c1ccccc1F [Example 32] | 100 to 1000
CCCC[C@@H]1CN(c2ccccc2)c2cc3c(cc2S(=O)(=O)N1C)-c1cc(C(=O)O)ccc1C1(CC1)N3 [Example 33, (R)-10′-butyl-11′-methyl-8′-phenyl-8′,9′,10′,11′-tetrahydro-6′H-spiro[cyclopropane-1,5′-[1,2,5]thiadiazepino[7,6-b]phenanthridine]-2′-carboxylic acid 12′,12′-dioxide] | > 1000
CCCC[C@@H]1CN(c2ccccc2)c2cc3oc4ccc(C(=O)O)cc4c3cc2S(=O)(=O)N1C [Example 34, (R)-3-butyl-2-methyl-5-phenyl-2,3,4,5-tetrahydrobenzo[2,3]benzofuro[6,5-f][1,2,5]thiadiazepine-10-carboxylic acid 1,1-dioxide] | 100 to 1000

Further lines, results first:

EC50 [nM] | SMILES
100 to 1000 | CN1[C@H](CC2CC2)CN(c2ccccc2)c2cc3c(cc2S1(=O)=O)-c1cc(C(=O)O)ccc1CO3 [Example 3]
< 100 | CC(C)C[C@@H]1CN(c2ccccc2)c2cc3c(cc2S(=O)(=O)N1C)-c1cc(C(=O)O)ccc1CO3 [Example 4, (R)-10-isobutyl-11-methyl-8-phenyl-8,9,10,11-tetrahydro-5H-benzo[3,4]chromeno[7,6-f][1,2,5]thiadiazepine-2-carboxylic acid 12,12-dioxide]
< 100 | CN1[C@H](CC(C)(C)C)CN(c2ccccc2)c2cc3c(cc2S1(=O)=O)-c1cc(C(=O)O)ccc1CO3 [Example 5]
100 to 1000 | CC(C)[C@@H]1CN(c2ccccc2)c2cc3c(cc2S(=O)(=O)N1C)-c1cc(C(=O)O)ccc1CO3 [Example 6]
< 100 | CCCC[C@@H]1CN(c2ccccc2)c2cc3c(cc2S(=O)(=O)N1C)-c1cc(C(=O)O)ccc1CO3 [Example 7, (R)-10-butyl-11-methyl-8-phenyl-8,9,10,11-tetrahydro-5H-benzo[3,4]chromeno[7,6-f][1,2,5]thiadiazepine-2-carboxylic acid 12,12-dioxide]
> 1000 | CCCC[C@@H]1CN(c2ccccc2)c2cc3c(cc2S(=O)(=O)N1C)-c1cccc(C(=O)O)c1CO3 [Example 9]
< 100 | CCCC[C@@H]1CN(c2ccccc2)c2cc3c(cc2S(=O)(=O)N1C)-c1cc(C(=O)O)c(F)cc1CO3 [Example 10, (R)-10-butyl-3-fluoro-11-methyl-8-phenyl-8,9,10,11-tetrahydro-5H-benzo[3,4]chromeno[7,6-f][1,2,5]thiadiazepine-2-carboxylic acid 12,12-dioxide]
> 1000 | CCCC[C@@H]1CN(c2ccccc2)c2cc3c(cc2S(=O)(=O)N1C)-c1nc(C(=O)O)ccc1CO3 [Example 11, (R)-10-butyl-11-methyl-8-phenyl-8,9,10,11-tetrahydro-5H-pyrido[3′,2′:3,4]chromeno[7,6-f][1,2,5]thiadiazepine-2-carboxylic acid 12,12-dioxide]
< 100 | CCCC[C@@H]1CN(c2ccccc2)c2cc3c(cc2S(=O)(=O)N1C)-c1cc(C(=O)O)sc1CO3 [Example 15, (R)-9-butyl-10-methyl-7-phenyl-7,8,9,10-tetrahydro-4H-thieno[2′,3′:3,4]chromeno[7,6-f][1,2,5]thiadiazepine-2-carboxylic acid 11,11-dioxide]
100 to 1000 | CCCC[C@@H]1CN(c2ccccc2)c2cc3c(cc2S(=O)(=O)N1C)-c1cc(C(=O)O)ccc1[C@@H](C(F)(F)F)O3 [Example 21b, (5S,10R)-10-butyl-11-methyl-8-phenyl-5-(trifluoromethyl)-8,9,10,11-tetrahydro-5H-benzo[3,4]chromeno[7,6-f][1,2,5]thiadiazepine-2-carboxylic acid 12,12-dioxide]
> 1000 | CCCC[C@@H]1CN(c2ccccc2)c2cc3c(cc2S(=O)(=O)N1C)-c1cc(C(=O)O)ccc1[C@H](C(C)(C)C)O3 [Example 22a, (5S,10R)-5-(tert-butyl)-10-butyl-11-methyl-8-phenyl-8,9,10,11-tetrahydro-5H-benzo[3,4]chromeno[7,6-f][1,2,5]thiadiazepine-2-carboxylic acid 12,12-dioxide]
> 1000 | CCCC[C@@H]1CN(c2ccccc2)c2cc3c(cc2S(=O)(=O)N1C)-c1cc(C(=O)O)ccc1[C@@H](C(C)(C)C)O3 [Example 22b, (5R,10R)-5-(tert-butyl)-10-butyl-11-methyl-8-phenyl-8,9,10,11-tetrahydro-5H-benzo[3,4]chromeno[7,6-f][1,2,5]thiadiazepine-2-carboxylic acid 12,12-dioxide]
100 to 1000 | CCCC[C@@H]1CN(c2ccccc2)c2cc3c(cc2S(=O)(=O)N1C)-c1cc(C(=O)O)ccc1C(C)(C)O3 [Example 23, (R)-10-butyl-5,5,11-trimethyl-8-phenyl-8,9,10,11-tetrahydro-5H-benzo[3,4]chromeno[7,6-f][1,2,5]thiadiazepine-2-carboxylic acid 12,12-dioxide]
100 to 1000 | CCCCC1CN(c2ccccc2)c2cc3c(cc2S(=O)(=O)N1C)-c1cc(C(=O)O)ccc1OC3 (stereo not drawn) [Example 24, 10-butyl-11-methyl-8-phenyl-8,9,10,11-tetrahydro-6H-benzo[3,4]isochromeno[7,6-f][1,2,5]thiadiazepine-2-carboxylic acid 12,12-dioxide]
< 100 | CCCC[C@@H]1CN(c2ccccc2)c2cc3c(cc2S(=O)(=O)N1C)-c1cc(C(=O)O)ccc1CN3C [Example 27, (R)-10-butyl-6,11-dimethyl-8-phenyl-5,6,8,9,10,11-hexahydro-[1,2,5]thiadiazepino[7,6-b]phenanthridine-2-carboxylic acid 12,12-dioxide]
100 to 1000 | CCCC[C@@H]1CN(c2ccccc2)c2cc3c(cc2S(=O)(=O)N1C)-c1cc(C(=O)O)ccc1CN3C(C)C [Example 28]
100 to 1000 | CCCC[C@@H]1CN(c2ccccc2)c2cc3c(cc2S(=O)(=O)N1C)-c1cc(C(=O)O)ccc1CN3 [Example 29]
